{"source": "paper PMC7540527", "about": "“Synthesis of Antiviral Perfluoroalkyl Derivatives of Teicoplanin and Vancomycin” (Chemmedchem, 2020)", "key": {"[1]": {"system": "herpes simplex virus type 1 (HSV-1)", "experiment": "microbe, parasite or virus in culture", "assay_type": "cell-based", "settings": "Human alphaherpesvirus 1, HEL, read-out: Antiviral EC50 HSV‐1"}, "[2]": {"system": "thymidine-kinase deficient (TK-) mutant of HSV-1", "experiment": "microbe, parasite or virus in culture", "assay_type": "cell-based, herpes simplex virus type 1", "settings": "Human alphaherpesvirus 1, HEL, read-out: Antiviral EC50 HSV‐1/TK−"}, "[3]": {"system": "herpes simplex virus type 2 (HSV-2)", "experiment": "microbe, parasite or virus in culture", "assay_type": "cell-based", "settings": "Human alphaherpesvirus 2, HEL, read-out: Antiviral EC50 HSV‐2"}, "vaccinia virus": {"system": "vaccinia virus", "experiment": "microbe, parasite or virus in culture", "assay_type": "cell-based", "settings": "Orthopoxvirus vaccinia, HEL, read-out: Antiviral EC50 Vaccinia"}, "[4]": {"system": "human adenovirus type 2 (AdV-2)", "experiment": "microbe, parasite or virus in culture", "assay_type": "cell-based", "settings": "Human mastadenovirus C, HEL, read-out: Antiviral EC50 AdV‐2"}, "in vitro [5]": {"experiment": "in vitro", "settings": "human"}, "[6]": {"system": "Vesicular stomatitis virus", "experiment": "microbe, parasite or virus in culture", "assay_type": "cell-based", "settings": "HeLa, read-out: Antiviral EC50 Vesicular stomatitis virus, Visual CPE score"}, "Coxsackie virus B4 [7]": {"system": "Coxsackie virus B4", "experiment": "microbe, parasite or virus in culture", "assay_type": "cell-based", "settings": "Enterovirus B, B4, HeLa, read-out: Antiviral EC50 Coxsackie virus B4, Visual CPE score"}, "[8]": {"system": "Respiratory syncytial virus", "experiment": "microbe, parasite or virus in culture", "assay_type": "cell-based", "settings": "human respiratory syncytial virus, HeLa, read-out: Antiviral EC50 Respiratory syncytial virus, Visual CPE score"}, "in vitro [9]": {"experiment": "in vitro", "settings": "human", "remark": "listed apart in the source"}, "[10]": {"system": "influenza A/H1N1 A/Ned/378/05", "experiment": "microbe, parasite or virus in culture", "assay_type": "cell-based, influenza A virus", "settings": "Influenza A virus, H1N1, MDCK"}, "[11]": {"system": "influenza A/H3N2 A/Victoria/361/11", "experiment": "microbe, parasite or virus in culture", "assay_type": "cell-based, influenza A virus", "settings": "Influenza A virus, H3N2, MDCK"}, "[12]": {"system": "influenza B virus B/Ned/537/05", "experiment": "CPE reduction assay for influenza virus in MDCK cells, influenza B", "assay_type": "cell-based", "settings": "Influenza B virus, MDCK cells", "experimental": "The CPE reduction assay for influenza virus was described in full detail in previous publications.41 The virus strains were: A/PR/8/34 (A/H1 N1); A/Virginia/ATCC3/2009 (A/H1 N1pdm); A/HK/7/87 (A/H3 N2); B/Ned/537/05; and B/HK/5/72. On day 0, Madin‐Darby canine kidney (MDCK) cells in 96‐well plates were infected with influenza virus at a multiplicity of infection (MOI) of 0.0004 plaque forming units (PFU) per cell. After three days incubation at 35 °C, virus‐induced CPE and compound cytotoxicity were scored by microscopy, after which the data were confirmed by formazan‐based MTS cell viability assay (CellTiter 96® AQueous One Solution Cell Proliferation Assay from Promega). The antiviral effect was expressed as the compound concentration producing 50 % inhibition of the virus‐induced CPE (EC50). Compound cytotoxicity was expressed as the compound concentration causing minimal changes in cell morphology (MCC), and 50 % cytotoxic concentration (CC50) based on MTS assay.42"}, "MDCK cells": {"system": "MDCK cells", "settings": "dog"}, "in vitro [13]": {"experiment": "in vitro", "settings": "dog"}, "Reovirus-1": {"system": "Reovirus-1", "experiment": "organism not typed", "assay_type": "cell-based", "settings": "Vero"}, "Sindbis virus": {"system": "Sindbis virus", "experiment": "microbe, parasite or virus in culture", "assay_type": "cell-based", "settings": "Vero"}, "Coxsackie virus B4 [14]": {"system": "Coxsackie virus B4", "experiment": "microbe, parasite or virus in culture", "assay_type": "cell-based", "settings": "Enterovirus B, B4, Vero"}, "Punta Toro virus": {"system": "Punta Toro virus", "experiment": "microbe, parasite or virus in culture", "assay_type": "cell-based", "settings": "Vero"}, "Yellow Fever virus (17D)": {"system": "Yellow Fever virus (17D)", "experiment": "microbe, parasite or virus in culture", "assay_type": "cell-based", "settings": "Vero"}, "[15]": {"system": "Zika virus (strain MR766)", "experiment": "microbe, parasite or virus in culture", "assay_type": "cell-based", "settings": "Vero"}, "Vero cells": {"system": "Vero cells", "settings": "African green monkey"}, "in vitro [16]": {"experiment": "in vitro", "settings": "African green monkey"}}, "note": "Like-named read-outs stand apart in the source and are kept apart here."}
{"smiles": "Nc1ccn(C[C@@H](CO)OCP(=O)(O)O)c(=O)n1", "note": "[cidofovir]", "values": [{"measurement": "EC50", "setting": "[1]", "result": 2.4, "unit": "µM"}, {"measurement": "EC50", "setting": "[2]", "result": 4.7, "unit": "µM"}, {"measurement": "EC50", "setting": "[3]", "result": 1, "unit": "µM"}, {"measurement": "EC50", "setting": "vaccinia virus", "result": 10, "unit": "µM"}, {"measurement": "EC50", "setting": "[4]", "result": 6.4, "unit": "µM"}, {"measurement": "CC50", "setting": "in vitro [5]", "result": "> 250", "unit": "µM"}]}
{"smiles": "NC(=O)c1ncn([C@@H]2O[C@H](CO)[C@@H](O)[C@H]2O)n1", "note": "[Ribavirin]", "values": [{"measurement": "EC50", "setting": "[6]", "result": 87, "unit": "µM"}, {"measurement": "EC50", "setting": "Coxsackie virus B4 [7]", "result": 126, "unit": "µM"}, {"measurement": "EC50", "setting": "[8]", "result": 5, "unit": "µM"}, {"measurement": "CC50", "setting": "in vitro [9]", "result": "> 250", "unit": "µM"}]}
{"smiles": "Cc1cn([C@H]2C[C@H](F)[C@@H](CO)O2)c(=O)[nH]c1=O", "note": "[alovudine]", "values": [{"measurement": "EC50", "setting": "[4]", "result": 5.9, "unit": "µM"}, {"measurement": "CC50", "setting": "in vitro [5]", "result": "> 250", "unit": "µM"}]}
{"smiles": "Nc1nc2c(ncn2COCCO)c(=O)[nH]1", "note": "[acyclovir]", "values": [{"measurement": "EC50", "setting": "[1]", "result": 2.4, "unit": "µM"}, {"measurement": "EC50", "setting": "[3]", "result": 0.05, "unit": "µM"}, {"measurement": "EC50", "setting": "vaccinia virus", "result": "> 250", "unit": "µM"}, {"measurement": "CC50", "setting": "in vitro [5]", "result": "> 250", "unit": "µM"}]}
{"smiles": "CC(=O)N[C@H]1[C@H]([C@H](O)[C@H](O)CO)OC(C(=O)O)=C[C@@H]1N=C(N)N", "note": "[zanamivir]", "values": [{"measurement": "EC50", "setting": "[10]; read-out: Antiviral EC50 A/H1N1 CPE", "result": 1.5, "unit": "µM"}, {"measurement": "EC50", "setting": "[10]; read-out: Antiviral EC50 A/H1N1 MTS", "result": 3.1, "unit": "µM"}, {"measurement": "EC50", "setting": "[11]; read-out: Antiviral EC50 A/H3N2 CPE", "result": 20, "unit": "µM"}, {"measurement": "EC50", "setting": "[11]; read-out: Antiviral EC50 A/H3N2 MTS", "result": 9, "unit": "µM"}, {"measurement": "EC50", "setting": "[12]; B/Ned/537/05, MTS assay, read-out: Antiviral EC50 Influenza B MTS", "result": 1.7, "unit": "µM"}, {"measurement": "EC50", "setting": "[12]; B/Ned/537/05, visual CPE scoring, read-out: Antiviral EC50 Influenza B CPE", "result": 2, "unit": "µM"}, {"measurement": "Cytotoxicity MCC (minimum cytotoxic concentration)", "setting": "MDCK cells", "result": ">100", "unit": "µM"}, {"measurement": "CC50", "setting": "in vitro [13]", "result": "> 100", "unit": "µM"}]}
{"smiles": "COc1c(C)c2c(c(O)c1C/C=C(\\C)CCC(=O)O)C(=O)OC2", "note": "[Mycophenolic acid]", "values": [{"measurement": "EC50", "setting": "Reovirus-1; read-out: Antiviral EC50 Reovirus-1, MTS", "result": 4, "unit": "µM"}, {"measurement": "EC50", "setting": "Reovirus-1; read-out: Antiviral EC50 Reovirus-1, Visual CPE score", "result": 3.3, "unit": "µM"}, {"measurement": "EC50", "setting": "Sindbis virus; read-out: Antiviral EC50 Sindbis virus, MTS", "result": 4, "unit": "µM"}, {"measurement": "EC50", "setting": "Sindbis virus; read-out: Antiviral EC50 Sindbis virus, Visual CPE score", "result": 5.7, "unit": "µM"}, {"measurement": "EC50", "setting": "Coxsackie virus B4 [14]; read-out: Antiviral EC50 Coxsackie virus B4, MTS", "result": "> 100", "unit": "µM"}, {"measurement": "EC50", "setting": "Coxsackie virus B4 [14]; read-out: Antiviral EC50 Coxsackie virus B4, Visual CPE score", "result": "> 100", "unit": "µM"}, {"measurement": "EC50", "setting": "Punta Toro virus; read-out: Antiviral EC50 Punta Toro virus, MTS", "result": 10.6, "unit": "µM"}, {"measurement": "EC50", "setting": "Punta Toro virus; read-out: Antiviral EC50 Punta Toro virus, Visual CPE score", "result": "> 100", "unit": "µM"}, {"measurement": "EC50", "setting": "Yellow Fever virus (17D); read-out: Antiviral EC50 Yellow Fever virus, MTS", "result": 1.4, "unit": "µM"}, {"measurement": "EC50", "setting": "Yellow Fever virus (17D); read-out: Antiviral EC50 Yellow Fever virus, Visual CPE score", "result": "> 100", "unit": "µM"}, {"measurement": "EC50", "setting": "[15]; read-out: Antiviral EC50 Zika virus, MTS", "result": 1.5, "unit": "µM"}, {"measurement": "EC50", "setting": "[15]; read-out: Antiviral EC50 Zika virus, Visual CPE score", "result": 0.8, "unit": "µM"}, {"measurement": "Cytotoxicity MCC", "setting": "Vero cells", "result": "> 100"}, {"measurement": "CC50", "setting": "in vitro [16]", "result": "> 100", "unit": "µM"}]}
